According to the Kinase Knowledgebase extract (Sharma et al. 2016):

Experiments:
CDK2 [1] = target: CDK2 (UniProt P24941); test: Enzyme Assay
CDK2 [2] = target: CDK2 (UniProt P24941); test: Enzyme Assay; remark: listed apart in the source

SMILES | IC50 (CDK2 [1]) [nM] | IC50 (CDK2 [2]) [nM]
CN1CCN(NC(=O)Nc2cccc3c2C(=O)c2c-3n[nH]c2-c2ccc(OCCN3CCCC3)cc2)CC1 | < 100 | < 100
O=C(Nc1cccc2c1C(=O)c1c-2n[nH]c1-c1ccc(OCCN2CCCC2)cc1)NN1CCOCC1 | < 100 | < 100
O=C(Nc1cccc2c1C(=O)c1c-2n[nH]c1-c1ccc(OCC(=O)N2CCCC2)cc1)NN1CCOCC1 | < 100 | –
CN1CCN(NC(=O)Nc2cccc3c2C(=O)c2c-3n[nH]c2-c2ccc(OCC(=O)N3CCCC3)cc2)CC1 | < 100 | –
CC(C)c1nn(-c2c(Cl)cccc2Cl)c2nc(Cc3ccc(OCCOC(=O)[C@@H](N)C(C)C)cc3)[nH]c(=O)c12 | < 100 | –
CC(C)c1nn(-c2c(Cl)cc(Cl)cc2Cl)c2nc(Cc3ccc(CN4CCN(C(C)C)CC4)n3C)[nH]c(=O)c12 | < 100 | –
CC(C)c1nn(-c2c(Cl)cc(Cl)cc2Cl)c2nc(Cc3ccc(NS(=O)(=O)CCCN4CCOCC4)cc3)[nH]c(=O)c12 | < 100 | < 100
O=C(Nc1cccc2c1C(=O)c1c(-c3ccc(OCc4nnn[nH]4)cc3)n[nH]c1-2)NN1CCOCC1 | < 100 | –
O=C(Nc1cccc2c1C(=O)c1c-2n[nH]c1-c1ccc(O)c(CN2CCOCC2)c1)NN1CCOCC1 | < 100 | –
CC(C)OC(=O)CN1CCN(NC(=O)Nc2cccc3c2C(=O)c2c-3n[nH]c2-c2ccc(OCCN3CCCC3)cc2)CC1 | < 100 | –
Cc1cc(OCCn2cccn2)ccc1-c1[nH]nc2c1C(=O)c1c(NC(=O)NN3CCN(C)CC3)cccc1-2 | < 100 | –
O=C(Nc1cccc2c1C(=O)c1c-2n[nH]c1-c1ccc(OCC(=O)N2CCOCC2)cc1)NN1CCOCC1 | < 100 | –
CN1CCN(NC(=O)Nc2cccc3c2C(=O)c2c-3n[nH]c2-c2ccc(OCCn3cccn3)cc2)CC1 | < 100 | –
O=C(Nc1cccc2c1C(=O)c1c(-c3ccc(OCCN4CCOCC4)c(F)c3)n[nH]c1-2)NN1CCOCC1 | < 100 | –
CN1CCN(NC(=O)Nc2cccc3c2C(=O)c2c-3n[nH]c2-c2ccc(O)cc2)CC1 | < 100 | –
CCN(CCO)S(=O)(=O)c1cc(Cl)c(-n2nc(C(C)C)c3c(=O)[nH]c(Cc4ccc(OCCN5CCOCC5)cc4)nc32)c(Cl)c1 | < 100 | –
CN1CCN(CCOc2ccc(-c3n[nH]c4c3C(=O)c3c(NC(=O)NN5CCN(C)CC5)cccc3-4)c(F)c2)CC1 | < 100 | –
CC(C)c1nn(-c2c(Cl)cccc2Cl)c2nc(Cc3ccc(NS(=O)(=O)CCCN4CCOCC4)cc3)[nH]c(=O)c12 | < 100 | –
O=C(Nc1cccc2c1C(=O)c1c(-c3ccc(CNCCOCCO)cc3)n[nH]c1-2)NN1CCOCC1 | < 100 | –
O=C(Nc1cccc2c1C(=O)c1c(-c3ccc(CN4CCN(c5cccc(C(F)(F)F)c5)CC4)cc3)n[nH]c1-2)NN1CCOCC1 | < 100 | –
O=C(Nc1cccc2c1C(=O)c1c-2n[nH]c1-c1ccc(OCCN2CCOCC2)cc1)NN1CCOCC1 | < 100 | –
CC(C)c1nn(-c2c(Cl)cccc2Cl)c2nc(Cc3ccc(CN4CCN(C(C)C)CC4)c(O)c3)[nH]c(=O)c12 | < 100 | –
CC(C)N1CCN(C(=O)COc2ccc(-c3n[nH]c4c3C(=O)c3c(NC(=O)NN5CCOCC5)cccc3-4)cc2)CC1 | < 100 | –
O=C(Nc1cccc2c1C(=O)c1c(-c3ccc(CN4CCC[C@H]4CO)cc3)n[nH]c1-2)NN1CCOCC1 | < 100 | –
CC(C)c1nn(-c2c(Cl)cccc2Cl)c2nc(Cc3ccc(CN4CCCC4)c(O)c3)[nH]c(=O)c12 | < 100 | –
CC(C)N1CCN(C(=O)COc2ccc(-c3[nH]nc4c3C(=O)c3c(NC(=O)NN5CCOCC5)cccc3-4)cc2)CC1 | < 100 | –

Second part, the compound after the results:

IC50 (CDK2 [1]) [nM] | IC50 (CDK2 [2]) [nM] | SMILES
< 100 | < 100 | CCCN(CCOc1ccc(-c2[nH]nc3c2C(=O)c2c(NC(=O)NN4CCOCC4)cccc2-3)cc1)CC1CC1
< 100 | < 100 | CC(C)c1nn(-c2c(Cl)cc(Cl)cc2Cl)c2nc(Cc3ccc(OCCN4CCOCC4)cc3)[nH]c(=O)c12
< 100 | < 100 | CC(C)c1nn(-c2c(Cl)cccc2Cl)c2nc(Cc3ccc(O)c(CN4CCN(C(C)C)CC4)c3)[nH]c(=O)c12
< 10 | < 10 | CC(C)N1CCN(CCOc2ccc(-c3[nH]nc4c3C(=O)c3c(NC(=O)NN5CCOCC5)cccc3-4)cc2)CC1
< 100 | < 100 | O=C(Nc1cccc2c1C(=O)c1c-2n[nH]c1-c1ccc(OCCN(CCO)CCO)cc1)NN1CCOCC1
< 10 | < 100 | CC(C)c1nn(-c2c(Cl)cccc2Cl)c2nc(Cc3ccc(OP(=O)(O)O)cc3)[nH]c(=O)c12
< 10 | – | COCCN1CCN(Cc2ccc(-c3[nH]nc4c3C(=O)c3c(NC(=O)NN5CCOCC5)cccc3-4)cc2)CC1
< 10 | < 100 | CN1CCN(NC(=O)Nc2cccc3c2C(=O)c2c-3n[nH]c2-c2ccc(OCCN3CCOCC3)cc2)CC1
< 10 | – | CC(C)c1nn(-c2c(Cl)cccc2Cl)c2nc(Cc3ccc(OCCN4CCOCC4)cc3)[nH]c(=O)c12
< 10 | – | CC(C)N1CCN(CCOc2ccc(-c3n[nH]c4c3C(=O)c3c(NC(=O)NN5CCOCC5)cccc3-4)cc2F)CC1
< 10 | – | CC(C)N1CCN(NC(=O)Nc2cccc3c2C(=O)c2c-3n[nH]c2-c2ccc(OCCN3CCCC3)cc2)CC1
< 10 | – | Cc1nc(Cc2nc3c(c(C(C)C)nn3-c3c(Cl)cccc3Cl)c(=O)[nH]2)cs1
< 10 | – | CC(C)c1nn(-c2c(Cl)cc(Cl)cc2Cl)c2nc(Cc3ccc(CNC(CO)CO)n3C)[nH]c(=O)c12
< 10 | – | O=C(O)COc1ccc(-c2n[nH]c3c2C(=O)c2c(NC(=O)NN4CCOCC4)cccc2-3)cc1
